# Test results: patent US8748436B2, “Carboxylic acid derivatives having a 2,5,7-substituted oxazolopyrimidine ring” (Sanofi, priority 2010, dated 2014)
# Target: T1, human Edg-1 receptor (Homo sapiens, UniProt P21453)
# T1 construct: FLAG (N); expressed in transfected cells; membrane preparation
# Experiment: GTP-γ-S assay using human Edg-1 receptors (scintillation proximity assay, CHO Flp-In cell membrane preparation)
# Assay type: biochemical
# Conditions: test compound at 10 μM; high control 10 μM S1P regarded as 100% activation; [35S]GTP-γ-S binding, triplicate; read-out: % Activation (Edg-1 receptor activation in percent of the activation by 10 μM S1P)
# Text: A) GTP-γ-S Assay Using Human Edg-1 Receptors
# In order to determine the Edg-1 receptor activation by the compounds of the invention, a GTP-γ-S (guanosine 5′-[thio]triphosphate) assay for G-protein coupled receptor binding based on the scintillation proximity assay principle was used, employing a cell membrane preparation from a CHO Flp-In cell line which constitutively overexpresses the human Edg-1 receptor.
# The Flp-In™ expression system (Invitrogen, cat. no. K6010-01) allows the generation of stable mammalian cell lines into which the gene of interest has been integrated through homologous recombination at a specific genomic location called Flp Recombination Target (FRT) site by means of a Flp recombinase encoded by the pOG44 expression plasmid. The integration of the pcDNA5/FRT expression construct into the Flp-In host cell line genome results in the transcription of the gene of interest. The stably transfected cells become hygromycin-resistant.
# One day prior to transfection, 200 000 Flp-In-CHO cells were seeded in Ham F-12 medium (Invitrogen, cat. no. 31765) supplemented with 10% fetal calf serum (FCS; Perbio Science, cat. no. SH30068.03) in a 6-well plate and incubated at 37° C./5% CO2 overnight. Using the FuGENE® 6 transfection reagent (Roche, cat. no. 11988387001), cells were cotransfected with the Flp recombinase expression plasmid pOG44 and a modified plasmid additionally containing the edg-1 gene (accession no. NM_001400) termed as pcDNA5-FRT-TO_nFLAG_DEST-EDG-1 with a 9:1 ratio. To obtain the modified pcDNA5-FRT-TO_nFLAG_DEST plasmid, the Invitrogen plasmid pcDNA5/FRT/TO (Invitrogen, cat. no. V6520-20) was adapted to the Gateway® (Invitrogen) cloning system by inserting a Gateway cassette containing attR recombination sites flanking a ccdB gene and a chloramphenicol-resistance gene (Gateway conversion system, Invitrogen, cat. no. 11828-029). In addition a FLAG tag epitope was added before the 5′ att recombination site to allow recombinant expression of N-terminally FLAG-tagged proteins.
# For the transfection of one well, 1.08 μg of pOG44 and 0.12 μg of pcDNA5-FRT-TO_nFLAG_DEST-EDG-1 were mixed to 100 μl of serum-free Ham F-12 medium containing 6 μl of FuGENE® 6 transfection reagent. After 20 min of incubation, the transfection reagent/DNA complex was distributed dropwise on the cells. The cells were incubated for 24 h at 37° C. Then the cells from 3 wells were transferred to a T75 flask (Greiner Cellstar®, cat. no. 658175) containing Ham F-12 medium supplemented with 10% of FCS but without antibiotic and were incubated another 24 h. 48 h after transfection, the medium was replaced by selection medium (Ham F-12 supplemented with 10% of FCS and 300 μg/ml of hygromycin B (Invitrogen, cat. no. 10687-010)). The medium was exchanged every 2 to 3 days until a resistant population of cells had grown. […] After 2 weeks of selection, the cells were transferred into T175 flasks (Greiner Cellstar®, cat. no. 660175) and cultivated for batch production. Cells were harvested from the culture flasks by short treatment (2 to 5 min) with Accutase (PAA, cat. no. L11-007), resuspended in selection medium (see above) and centrifuged at 200×g for 5 min. The cells were resuspended in a mixture of 90% of FCS and 10% of dimethylsulfoxide and stored frozen in liquid nitrogen.
# A membrane preparation was obtained by standard methods from the afore-described CHO Flp-In cell line constitutively overexpressing the human Edg-1 receptor. Briefly, the cryopreserved cells were taken in culture and grown until confluency in T175 cell culture flasks (Becton Dickinson, cat. no. 35 5001). […]
# T1 sequence (P21453 whole entry): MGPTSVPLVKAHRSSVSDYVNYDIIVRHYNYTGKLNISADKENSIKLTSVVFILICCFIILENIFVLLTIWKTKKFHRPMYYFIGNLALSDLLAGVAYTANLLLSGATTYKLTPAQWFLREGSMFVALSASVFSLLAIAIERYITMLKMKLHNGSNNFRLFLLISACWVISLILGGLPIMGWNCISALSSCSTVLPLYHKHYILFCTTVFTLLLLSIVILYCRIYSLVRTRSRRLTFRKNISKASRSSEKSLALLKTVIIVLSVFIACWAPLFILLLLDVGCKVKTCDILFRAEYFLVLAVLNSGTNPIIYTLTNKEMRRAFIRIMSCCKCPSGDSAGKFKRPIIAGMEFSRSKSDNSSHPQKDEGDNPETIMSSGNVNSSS
row,activation at 10 µM [%],Structure (SMILES)
1,102,"CCCOc1nc(Oc2ccc3ncsc3c2)nc2oc(-c3cc(C)c(OCC(=O)O)c(C)c3)nc12 [Example 66, {4-[5-(benzothiazol-6-yloxy)-7-propoxy-oxazolo[5,4-d]pyrimidin-2-yl]-2,6-dimethylphenoxy}-acetic acid]"
2,82,"CCCOc1nc(Oc2cccc(C(F)(F)F)c2)nc2oc(-c3cc(C)c(OCC(=O)O)c(C)c3)nc12 [Example 67, {2,6-dimethyl-4-[7-propoxy-5-(3-trifluoromethylphenoxy)-oxazolo[5,4-d]pyrimidin-2-yl]-phenoxy}-acetic acid]"
3,69,"CCCOc1nc(Oc2ccc(C(F)(F)F)cc2)nc2oc(-c3cc(C)c(OCC(=O)O)c(C)c3)nc12 [Example 68, {2,6-dimethyl-4-[7-propoxy-5-(4-trifluoromethylphenoxy)-oxazolo[5,4-d]pyrimidin-2-yl]-phenoxy}-acetic acid]"
4,67,"CCCOc1nc(Oc2ccccc2C(F)(F)F)nc2oc(-c3cc(C)c(OCC(=O)O)c(C)c3)nc12 [Example 69, {2,6-dimethyl-4-[7-propoxy-5-(2-trifluoromethylphenoxy)-oxazolo[5,4-d]pyrimidin-2-yl]-phenoxy}-acetic acid]"
5,89,"CCCOc1nc(Oc2ccc3sc(C)nc3c2)nc2oc(-c3cc(C)c(OCC(=O)O)c(C)c3)nc12 [Example 70, {2,6-dimethyl-4-[5-(2-methylbenzothiazol-5-yloxy)-7-propoxy-oxazolo[5,4-d]pyrimidin-2-yl]-phenoxy}-acetic acid]"
6,62,"CCCOc1nc(Oc2ccccc2OC(F)(F)F)nc2oc(-c3cc(C)c(OCC(=O)O)c(C)c3)nc12 [Example 71, {2,6-dimethyl-4-[7-propoxy-5-(2-trifluoromethoxyphenoxy)-oxazolo[5,4-d]pyrimidin-2-yl]-phenoxy}-acetic acid]"
7,48,"CCCOc1nc(Oc2cccc(C(F)(F)F)c2F)nc2oc(-c3cc(C)c(OCC(=O)O)c(C)c3)nc12 [Example 72, {4-[5-(2-fluoro-3-trifluoromethylphenoxy)-7-propoxy-oxazolo[5,4-d]pyrimidin-2-yl]-2,6-dimethyl-phenoxy}-acetic acid]"
8,59,"CCCOc1nc(Oc2cc(C(F)(F)F)ccc2F)nc2oc(-c3cc(C)c(OCC(=O)O)c(C)c3)nc12 [Example 73, {4-[5-(2-fluoro-5-trifluoromethylphenoxy)-7-propoxy-oxazolo[5,4-d]pyrimidin-2-yl]-2,6-dimethylphenoxy}-acetic acid]"
9,61,"CCCOc1nc(Oc2ccc(F)c(C(F)(F)F)c2)nc2oc(-c3cc(C)c(OCC(=O)O)c(C)c3)nc12 [Example 74, {4-[5-(4-fluoro-3-trifluoromethylphenoxy)-7-propoxy-oxazolo[5,4-d]pyrimidin-2-yl]-2,6-dimethyl-phenoxy}-acetic acid]"
10,48,"CCCOc1nc(Oc2cc(F)cc(C(F)(F)F)c2)nc2oc(-c3cc(C)c(OCC(=O)O)c(C)c3)nc12 [Example 75, {4-[5-(3-fluoro-5-trifluoromethylphenoxy)-7-propoxy-oxazolo[5,4-d]pyrimidin-2-yl]-2,6-dimethyl-phenoxy}-acetic acid]"

# The next lines start with the compound.
row,Structure (SMILES),activation at 10 µM [%]
1,"CCCOc1nc(Oc2cccc3c2CCC3)nc2oc(-c3cc(C)c(OCC(=O)O)c(C)c3)nc12 [Example 52, {4-[5-(indan-4-yloxy)-7-propoxy-oxazolo[5,4-d]pyrimidin-2-yl]-2,6-dimethylphenoxy}-acetic acid]",54
2,"CCCOc1nc(Oc2ccc3c(c2)CCC3)nc2oc(-c3cc(C)c(OCC(=O)O)c(C)c3)nc12 [Example 53, {4-[5-(indan-5-yloxy)-7-propoxy-oxazolo[5,4-d]pyrimidin-2-yl]-2,6-dimethylphenoxy}-acetic acid]",55
3,"CCCOc1nc(Oc2cccc(Cl)c2C)nc2oc(-c3cc(C)c(OCC(=O)O)c(C)c3)nc12 [Example 54, {4-[5-(3-chloro-2-methylphenoxy)-7-propoxy-oxazolo[5,4-d]pyrimidin-2-yl]-2,6-dimethyl-phenoxy}-acetic acid]",107
4,"CCCOc1nc(Oc2ccc(C)c(Cl)c2)nc2oc(-c3cc(C)c(OCC(=O)O)c(C)c3)nc12 [Example 55, {4-[5-(3-chloro-4-methylphenoxy)-7-propoxy-oxazolo[5,4-d]pyrimidin-2-yl]-2,6-dimethylphenoxy}-acetic acid]",66
5,"CCCOc1nc(Oc2cc(Cl)ccc2C)nc2oc(-c3cc(C)c(OCC(=O)O)c(C)c3)nc12 [Example 56, {4-[5-(5-chloro-2-methylphenoxy)-7-propoxy-oxazolo[5,4-d]pyrimidin-2-yl]-2,6-dimethyl-phenoxy}-acetic acid]",78
6,"CCCOc1nc(Oc2ccc3ccccc3c2)nc2oc(-c3cc(C)c(OCC(=O)O)c(C)c3)nc12 [Example 57, {2,6-dimethyl-4-[5-(naphthalen-2-yloxy)-7-propoxy-oxazolo[5,4-d]pyrimidin-2-yl]-phenoxy}-acetic acid]",58
7,"CCCOc1nc(Oc2cnc3ccccc3c2)nc2oc(-c3cc(C)c(OCC(=O)O)c(C)c3)nc12 [Example 58, {2,6-dimethyl-4-[7-propoxy-5-(quinolin-3-yloxy)-oxazolo[5,4-d]pyrimidin-2-yl]-phenoxy}-acetic acid]",75
8,"CCCOc1nc(Oc2ccc(Cl)cc2F)nc2oc(-c3cc(C)c(OCC(=O)O)c(C)c3)nc12 [Example 59, {4-[5-(4-chloro-2-fluorophenoxy)-7-propoxy-oxazolo[5,4-d]pyrimidin-2-yl]-2,6-dimethyl-phenoxy}-acetic acid]",72
9,"CCCOc1nc(Oc2cc(F)cc(Cl)c2)nc2oc(-c3cc(C)c(OCC(=O)O)c(C)c3)nc12 [Example 60, {4-[5-(3-chloro-5-fluorophenoxy)-7-propoxy-oxazolo[5,4-d]pyrimidin-2-yl]-2,6-dimethyl-phenoxy}-acetic acid]",59
10,"CCCOc1nc(Oc2ccc(F)cc2Cl)nc2oc(-c3cc(C)c(OCC(=O)O)c(C)c3)nc12 [Example 61, {4-[5-(2-chloro-4-fluorophenoxy)-7-propoxy-oxazolo[5,4-d]pyrimidin-2-yl]-2,6-dimethyl-phenoxy}-acetic acid]",97
11,"CCCOc1nc(Oc2ccc(F)c(Cl)c2)nc2oc(-c3cc(C)c(OCC(=O)O)c(C)c3)nc12 [Example 62, {4-[5-(3-chloro-4-fluorophenoxy)-7-propoxy-oxazolo[5,4-d]pyrimidin-2-yl]-2,6-dimethylphenoxy}-acetic acid]",56
12,"CCCOc1nc(Oc2cccc(Cl)c2F)nc2oc(-c3cc(C)c(OCC(=O)O)c(C)c3)nc12 [Example 63, {4-[5-(3-chloro-2-fluorophenoxy)-7-propoxy-oxazolo[5,4-d]pyrimidin-2-yl]-2,6-dimethyl-phenoxy}-acetic acid]",67
13,"CCCOc1nc(Oc2ccc(Cl)c(F)c2)nc2oc(-c3cc(C)c(OCC(=O)O)c(C)c3)nc12 [Example 64, {4-[5-(4-chloro-3-fluorophenoxy)-7-propoxy-oxazolo[5,4-d]pyrimidin-2-yl]-2,6-dimethylphenoxy}-acetic acid]",65
14,"CCCOc1nc(Oc2cc(F)ccc2Cl)nc2oc(-c3cc(C)c(OCC(=O)O)c(C)c3)nc12 [Example 65, {4-[5-(2-chloro-5-fluorophenoxy)-7-propoxy-oxazolo[5,4-d]pyrimidin-2-yl]-2,6-dimethylphenoxy}-acetic acid]",105
